Source: patent US20050100577A1, “Expandable medical device with beneficial agent matrix formed by a multi solvent system” (priority 2003, published 2005)

Legend:
[1] = Description: A second drug, such as paclitaxel, which is soluble in anisole can be provided in the top layers. Therefore, the arrangement shown in FIG. 4 can include 2-CdA in the first therapeutic agent layer 60 and paclitaxel in the second therapeutic agent layer 70.
[2] = cited from earlier work

Nc1nc(Cl)nc2c1ncn2[C@H]1C[C@H](O)[C@@H](CO)O1 [2-CdA, 2-chlorodeoxyadenosine]
solubility in first solvent, DMSO [1]: very soluble
solubility in second solvent, anisole [1]: marginal solubility
water solubility [2]: about 4.5 mg/ml
